Like-named read-outs stand apart in the source and are kept apart here.

Data on 4 compounds can be found in PMC7026418, “The kinase polypharmacology landscape of clinical PARP inhibitors” (Scientific Reports, 2020).

What all share (test): biochemical
Parameters in all cases: DiscoveRx KINOMEscan active site-directed competition binding; percent of control kinase bound to immobilised ligand

Test [1] concerns the target SRPK2 (Homo sapiens, UniProt P78362).
The target of test [2] is EGFR (Homo sapiens, UniProt P00533).
Chain of EGFR (P00533 whole entry): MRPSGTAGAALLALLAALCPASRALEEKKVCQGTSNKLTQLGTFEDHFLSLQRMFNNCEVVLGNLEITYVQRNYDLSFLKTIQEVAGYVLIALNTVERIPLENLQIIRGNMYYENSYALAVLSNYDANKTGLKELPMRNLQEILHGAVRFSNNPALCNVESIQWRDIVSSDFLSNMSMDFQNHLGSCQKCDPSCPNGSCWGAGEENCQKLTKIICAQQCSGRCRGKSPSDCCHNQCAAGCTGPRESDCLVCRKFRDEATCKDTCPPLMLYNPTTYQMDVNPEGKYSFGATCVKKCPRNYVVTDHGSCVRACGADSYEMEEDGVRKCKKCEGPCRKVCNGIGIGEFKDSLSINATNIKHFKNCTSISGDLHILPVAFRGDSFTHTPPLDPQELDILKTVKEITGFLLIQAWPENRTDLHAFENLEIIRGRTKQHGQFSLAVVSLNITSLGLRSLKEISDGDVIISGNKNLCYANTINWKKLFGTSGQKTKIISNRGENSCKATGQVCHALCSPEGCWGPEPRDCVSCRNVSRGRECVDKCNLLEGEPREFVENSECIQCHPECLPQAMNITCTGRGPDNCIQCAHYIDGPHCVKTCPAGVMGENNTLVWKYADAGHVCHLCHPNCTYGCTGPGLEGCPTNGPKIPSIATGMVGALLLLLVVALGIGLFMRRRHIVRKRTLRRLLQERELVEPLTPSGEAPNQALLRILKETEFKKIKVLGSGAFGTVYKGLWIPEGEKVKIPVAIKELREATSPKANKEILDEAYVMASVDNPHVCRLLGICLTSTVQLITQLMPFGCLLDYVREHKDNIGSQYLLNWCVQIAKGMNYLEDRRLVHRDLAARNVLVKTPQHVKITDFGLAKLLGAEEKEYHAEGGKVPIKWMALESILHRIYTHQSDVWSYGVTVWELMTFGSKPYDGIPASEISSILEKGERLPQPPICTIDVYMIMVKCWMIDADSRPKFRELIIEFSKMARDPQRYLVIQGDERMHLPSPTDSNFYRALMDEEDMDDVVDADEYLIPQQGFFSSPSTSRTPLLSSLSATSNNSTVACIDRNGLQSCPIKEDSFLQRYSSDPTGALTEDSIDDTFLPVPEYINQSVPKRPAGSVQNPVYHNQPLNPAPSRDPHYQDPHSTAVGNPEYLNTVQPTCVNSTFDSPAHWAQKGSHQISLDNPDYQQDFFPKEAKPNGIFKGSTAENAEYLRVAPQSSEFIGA
Test [3] has as its target T1, RIPK1 (Homo sapiens, UniProt Q13546).
T1 sequence (Q13546 1-671): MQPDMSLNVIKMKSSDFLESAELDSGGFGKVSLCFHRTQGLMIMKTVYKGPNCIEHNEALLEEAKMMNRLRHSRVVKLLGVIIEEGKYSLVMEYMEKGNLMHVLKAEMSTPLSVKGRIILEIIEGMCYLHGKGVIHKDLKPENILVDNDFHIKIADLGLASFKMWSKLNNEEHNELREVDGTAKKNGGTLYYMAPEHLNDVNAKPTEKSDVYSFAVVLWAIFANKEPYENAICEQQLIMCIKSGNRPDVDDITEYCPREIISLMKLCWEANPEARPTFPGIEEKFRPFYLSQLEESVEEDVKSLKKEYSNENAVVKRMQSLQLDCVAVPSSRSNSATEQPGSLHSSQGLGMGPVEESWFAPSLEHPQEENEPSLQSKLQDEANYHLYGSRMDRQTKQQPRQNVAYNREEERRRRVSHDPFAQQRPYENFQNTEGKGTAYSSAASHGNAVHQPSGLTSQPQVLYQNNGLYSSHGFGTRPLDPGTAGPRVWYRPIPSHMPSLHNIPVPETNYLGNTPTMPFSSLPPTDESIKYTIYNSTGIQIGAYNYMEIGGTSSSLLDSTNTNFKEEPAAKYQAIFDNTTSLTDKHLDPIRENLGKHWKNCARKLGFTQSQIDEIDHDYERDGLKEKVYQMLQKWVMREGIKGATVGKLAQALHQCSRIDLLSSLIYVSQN

For test [4], the target named is SIK2 (Homo sapiens, UniProt Q9H0K1).
In test [5] the target is T2, YSK1 (Homo sapiens, UniProt O00506).
T2 construct: gene STK25
T2 sequence (O00506 whole entry): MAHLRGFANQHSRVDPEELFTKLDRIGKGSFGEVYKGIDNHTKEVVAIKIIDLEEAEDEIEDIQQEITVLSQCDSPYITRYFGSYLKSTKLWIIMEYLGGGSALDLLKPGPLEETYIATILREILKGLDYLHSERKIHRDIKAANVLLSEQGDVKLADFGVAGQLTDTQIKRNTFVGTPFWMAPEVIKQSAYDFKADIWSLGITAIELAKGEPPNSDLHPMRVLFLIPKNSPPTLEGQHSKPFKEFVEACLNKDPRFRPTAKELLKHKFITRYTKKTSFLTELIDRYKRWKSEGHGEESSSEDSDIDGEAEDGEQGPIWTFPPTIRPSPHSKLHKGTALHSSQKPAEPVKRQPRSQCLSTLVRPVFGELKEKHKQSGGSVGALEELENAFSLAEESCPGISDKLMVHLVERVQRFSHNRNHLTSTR

For test [6], the target named is GSK3B (Homo sapiens, UniProt P49841).
Chain of GSK3B (P49841 whole entry): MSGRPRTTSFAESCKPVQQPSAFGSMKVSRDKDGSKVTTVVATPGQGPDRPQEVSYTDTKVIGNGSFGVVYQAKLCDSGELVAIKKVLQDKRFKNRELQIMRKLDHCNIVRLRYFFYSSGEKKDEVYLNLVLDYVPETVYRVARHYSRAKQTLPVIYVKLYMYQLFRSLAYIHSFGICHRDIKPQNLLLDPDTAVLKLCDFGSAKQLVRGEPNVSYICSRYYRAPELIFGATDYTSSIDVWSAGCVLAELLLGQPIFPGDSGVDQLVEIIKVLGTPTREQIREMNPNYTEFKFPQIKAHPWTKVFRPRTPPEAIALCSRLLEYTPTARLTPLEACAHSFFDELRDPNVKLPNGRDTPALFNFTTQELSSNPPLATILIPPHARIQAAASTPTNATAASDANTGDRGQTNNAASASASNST
The target of test [7] is CLK3 (Homo sapiens, UniProt P49761).
The target of test [8] is PIK3CB (Homo sapiens, UniProt P42338).
Chain of PIK3CB (P42338 whole entry): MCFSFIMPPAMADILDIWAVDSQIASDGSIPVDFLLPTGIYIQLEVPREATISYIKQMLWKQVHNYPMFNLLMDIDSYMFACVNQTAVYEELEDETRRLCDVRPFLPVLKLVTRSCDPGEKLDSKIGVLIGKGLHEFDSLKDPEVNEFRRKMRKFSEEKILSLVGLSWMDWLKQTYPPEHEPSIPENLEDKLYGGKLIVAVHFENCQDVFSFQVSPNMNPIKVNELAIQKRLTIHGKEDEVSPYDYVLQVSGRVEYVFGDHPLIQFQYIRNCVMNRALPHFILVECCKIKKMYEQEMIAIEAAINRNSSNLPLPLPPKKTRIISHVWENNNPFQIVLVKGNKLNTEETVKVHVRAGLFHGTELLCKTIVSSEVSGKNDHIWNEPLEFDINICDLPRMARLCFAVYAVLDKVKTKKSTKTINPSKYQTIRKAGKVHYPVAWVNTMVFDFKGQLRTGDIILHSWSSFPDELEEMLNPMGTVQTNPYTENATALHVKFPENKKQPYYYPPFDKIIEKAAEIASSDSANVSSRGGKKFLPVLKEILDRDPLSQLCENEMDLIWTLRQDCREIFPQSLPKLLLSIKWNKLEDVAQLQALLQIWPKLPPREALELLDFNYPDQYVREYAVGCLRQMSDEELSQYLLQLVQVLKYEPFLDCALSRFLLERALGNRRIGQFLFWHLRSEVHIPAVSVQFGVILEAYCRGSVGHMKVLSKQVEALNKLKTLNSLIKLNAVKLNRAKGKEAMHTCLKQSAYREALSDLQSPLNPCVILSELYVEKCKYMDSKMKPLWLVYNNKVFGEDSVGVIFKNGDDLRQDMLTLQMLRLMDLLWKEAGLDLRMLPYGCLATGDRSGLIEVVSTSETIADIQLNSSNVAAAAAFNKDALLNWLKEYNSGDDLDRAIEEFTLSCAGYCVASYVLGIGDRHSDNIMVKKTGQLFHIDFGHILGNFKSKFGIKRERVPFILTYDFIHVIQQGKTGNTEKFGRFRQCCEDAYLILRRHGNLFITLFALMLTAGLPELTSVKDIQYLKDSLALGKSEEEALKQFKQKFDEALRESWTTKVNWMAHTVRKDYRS
Test [9] has as its target CDK9 (Homo sapiens, UniProt P50750).
The target of test [10] is T3, NEK11 (Homo sapiens, UniProt Q8NG66).
T3 sequence (Q8NG66 1-645): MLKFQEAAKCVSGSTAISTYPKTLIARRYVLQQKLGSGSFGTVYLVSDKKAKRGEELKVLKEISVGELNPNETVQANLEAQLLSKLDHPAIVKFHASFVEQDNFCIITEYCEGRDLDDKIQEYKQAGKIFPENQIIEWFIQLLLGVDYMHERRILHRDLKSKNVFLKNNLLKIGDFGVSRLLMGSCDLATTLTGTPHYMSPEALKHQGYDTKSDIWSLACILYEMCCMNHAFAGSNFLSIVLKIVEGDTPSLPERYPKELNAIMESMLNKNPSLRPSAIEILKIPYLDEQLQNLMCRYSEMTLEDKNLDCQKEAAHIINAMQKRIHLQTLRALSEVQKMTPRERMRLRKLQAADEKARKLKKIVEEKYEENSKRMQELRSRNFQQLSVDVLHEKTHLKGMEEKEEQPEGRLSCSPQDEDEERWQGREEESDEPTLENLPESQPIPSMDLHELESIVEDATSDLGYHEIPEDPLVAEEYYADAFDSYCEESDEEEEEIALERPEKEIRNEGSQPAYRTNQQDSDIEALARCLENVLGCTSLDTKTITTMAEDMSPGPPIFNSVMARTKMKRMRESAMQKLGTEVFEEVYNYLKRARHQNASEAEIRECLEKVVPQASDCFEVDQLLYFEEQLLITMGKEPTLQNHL

For test [11], the target named is T4, SIK (Homo sapiens, UniProt P57059).
T4 construct: gene SIK1

In test [12] the target is AURKB (Homo sapiens, UniProt Q96GD4).
Chain of AURKB (Q96GD4 whole entry): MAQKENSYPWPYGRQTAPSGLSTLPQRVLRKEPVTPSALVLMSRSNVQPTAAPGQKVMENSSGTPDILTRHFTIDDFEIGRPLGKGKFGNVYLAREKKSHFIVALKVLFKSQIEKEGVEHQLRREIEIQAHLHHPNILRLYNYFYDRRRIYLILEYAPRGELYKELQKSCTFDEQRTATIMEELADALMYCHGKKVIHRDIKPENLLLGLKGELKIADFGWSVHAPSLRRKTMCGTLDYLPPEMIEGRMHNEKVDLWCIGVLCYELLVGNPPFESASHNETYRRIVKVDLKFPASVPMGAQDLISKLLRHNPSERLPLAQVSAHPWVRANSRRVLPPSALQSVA
Test [13] addresses PIP5K1A (Homo sapiens, UniProt Q99755).
In test [14] the target is WNK2 (Homo sapiens, UniProt Q9Y3S1).
Test [15] deals with T5, TRKA (Homo sapiens, UniProt P04629).
T5 construct: gene NTRK1

Setting [16] is: read-out: Niraparib (MK-4827) / %Ctrl @ 10000nM.
The mark [17] stands for this setting: read-out: Olaparib / %Ctrl @ 10000nM.
Setting [18] is: read-out: Rucaparib / %Ctrl @ 10000nM, binding competition, % of control.
[19] abbreviates: read-out: Talazoparib (BMN 673) / %Ctrl @ 10000nM.

Chain of SRPK2 (P78362 whole entry): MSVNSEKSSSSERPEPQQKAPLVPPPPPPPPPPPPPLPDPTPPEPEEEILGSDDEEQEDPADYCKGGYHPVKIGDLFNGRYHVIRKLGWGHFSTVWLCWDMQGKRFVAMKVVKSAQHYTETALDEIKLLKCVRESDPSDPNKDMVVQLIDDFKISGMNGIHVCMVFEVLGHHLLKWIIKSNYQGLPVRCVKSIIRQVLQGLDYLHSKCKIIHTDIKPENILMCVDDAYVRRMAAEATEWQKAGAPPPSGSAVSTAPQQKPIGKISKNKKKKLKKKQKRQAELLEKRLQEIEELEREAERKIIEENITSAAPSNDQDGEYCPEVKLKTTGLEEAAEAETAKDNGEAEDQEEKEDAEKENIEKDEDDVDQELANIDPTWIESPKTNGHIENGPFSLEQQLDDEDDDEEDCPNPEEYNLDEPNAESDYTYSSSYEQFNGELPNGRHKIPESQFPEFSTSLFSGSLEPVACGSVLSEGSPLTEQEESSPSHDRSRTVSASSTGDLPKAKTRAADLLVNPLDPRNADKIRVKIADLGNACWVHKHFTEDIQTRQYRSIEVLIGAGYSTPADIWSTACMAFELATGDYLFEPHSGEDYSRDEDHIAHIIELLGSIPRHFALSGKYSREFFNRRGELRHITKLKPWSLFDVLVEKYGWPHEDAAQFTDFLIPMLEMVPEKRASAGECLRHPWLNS
Chain of PIP5K1A (Q99755 whole entry): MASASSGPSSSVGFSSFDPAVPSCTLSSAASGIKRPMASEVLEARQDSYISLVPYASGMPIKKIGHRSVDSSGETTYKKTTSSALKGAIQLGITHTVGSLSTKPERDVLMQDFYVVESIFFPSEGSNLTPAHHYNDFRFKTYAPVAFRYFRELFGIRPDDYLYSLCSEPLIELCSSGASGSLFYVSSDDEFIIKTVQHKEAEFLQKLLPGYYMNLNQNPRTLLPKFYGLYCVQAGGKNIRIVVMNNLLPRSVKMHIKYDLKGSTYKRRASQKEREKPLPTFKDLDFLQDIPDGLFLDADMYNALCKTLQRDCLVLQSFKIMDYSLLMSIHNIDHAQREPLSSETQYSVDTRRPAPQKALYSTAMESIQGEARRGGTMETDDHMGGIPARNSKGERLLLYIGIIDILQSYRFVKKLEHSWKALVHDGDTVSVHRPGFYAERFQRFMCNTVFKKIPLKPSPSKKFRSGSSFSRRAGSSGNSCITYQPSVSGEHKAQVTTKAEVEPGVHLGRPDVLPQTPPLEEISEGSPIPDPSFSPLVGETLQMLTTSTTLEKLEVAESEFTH

As for `NC(=O)c1cccc2cn(-c3ccc([C@@H]4CCCNC4)cc3)nc12` [Niraparib], the percent of control binding at 10 µM in test [1] (setting [16]) was 100%; in [2] (setting [16]), 67%; in test [3] (setting [16]), 91%; in test [4] (setting [16]) it was 91%; in test [5] (setting [16]), 99%; in test [6] (setting [16]), 88%. The percent of control binding at 10 µM amounted to 100% in test [7] (setting [16]); 100% in test [8] (setting [16]); 100% in test [9] (setting [16]); 99% in test [10] (setting [16]); 93% in test [11] (setting [16]); 8.1% in test [12] (setting [16]). In addition, the percent of control binding at 10 µM in test [13] (setting [16]) worked out at 100%; in test [14] (setting [16]), 100%; in [15] (setting [16]), 99%.

Regarding `O=C(c1cc(Cc2n[nH]c(=O)c3ccccc23)ccc1F)N1CCN(C(=O)C2CC2)CC1` [Olaparib], the percent of control binding at 10 µM in test [1] (setting [17]) is 86%; in test [2] (setting [17]), 82%; in test [3] (setting [17]) it was 100%; in test [4] (setting [17]) it was 100%; in [5] (setting [17]), 97%; in test [6] (setting [17]) it was 98%. The percent of control binding at 10 µM in test [7] (setting [17]) was found to be 89%; in [8] (setting [17]), 90%; in test [9] (setting [17]), 100%; in test [10] (setting [17]) it was 82%; in [11] (setting [17]), 95%; in [12] (setting [17]), 100%. Moreover, the results for the percent of control binding at 10 µM in test [13] (setting [17]), in [14] (setting [17]) and in test [15] (setting [17]) were 100%, 76% and 91%, respectively.

Take `CNCc1ccc(-c2[nH]c3cc(F)cc4c3c2CCNC4=O)cc1` [Rucaparib]: the percent of control binding at 10 µM in test [1] (setting [18]) turned out to be 68%; in [2] (setting [18]) it was 87%; in test [3] (setting [18]), 99%; in test [4] (setting [18]), 96%; in test [5] (setting [18]) it was 87%; in [6] (setting [18]) it was 89%. Besides, the percent of control binding at 10 µM was 75% in test [7] (setting [18]); 83% in test [8] (setting [18]); 78% in test [9] (setting [18]); 91% in test [10] (setting [18]); 87% in test [11] (setting [18]); 100% in [12] (setting [18]). Also, the results for the percent of control binding at 10 µM in [13] (setting [18]), in test [14] (setting [18]) and in test [15] (setting [18]) were 100%, 66% and 74%, respectively.

Consider `Cn1ncnc1[C@H]1c2n[nH]c(=O)c3cc(F)cc(c23)N[C@@H]1c1ccc(F)cc1` [Talazoparib], for which the percent of control binding at 10 µM in [1] (setting [19]) turned out to be 100%; in test [2] (setting [19]), 85%; in test [3] (setting [19]), 99%; in [4] (setting [19]), 100%; in [5] (setting [19]), 80%; in [6] (setting [19]) it was 100%. The percent of control binding at 10 µM in test [7] (setting [19]) is 17%; in [8] (setting [19]) it was 100%; in test [9] (setting [19]) it was 100%; in test [10] (setting [19]) it was 100%; in test [11] (setting [19]) it was 78%; in test [12] (setting [19]), 73%. Besides, the percent of control binding at 10 µM in test [13] (setting [19]) was 88%; in test [14] (setting [19]), 100%; in [15] (setting [19]) it was 100%.
